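A five-concentration, 48-hour dose response in 96-well plates underlies each endpoint, interpolated linearly between surrounding concentrations. GI50 is the concentration that inhibits growth by half. At the TGI there is no net growth.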
How the values were obtained:
Experiment in all cases: NCI-60 cell line screen, 48 h
COLO 205 colon = system: COLO 205 colon
DU-145 prostate = system: DU-145 prostate
LOX IMVI melanoma = system: LOX IMVI melanoma
MCF7 breast = system: MCF7 breast
NCI-H522 lung = system: NCI-H522 lung
OVCAR-4 ovarian = system: OVCAR-4 ovarian
PC-3 prostate = system: PC-3 prostate
SF-295 CNS = system: SF-295 CNS
SF-539 CNS = system: SF-539 CNS
SW-620 colon = system: SW-620 colon

| Compound | GI50 (COLO 205 colon) [µM] | TGI (COLO 205 colon) [µM] | GI50 (DU-145 prostate) [µM] | TGI (DU-145 prostate) [µM] | GI50 (LOX IMVI melanoma) [µM] | TGI (LOX IMVI melanoma) [µM] | GI50 (MCF7 breast) [µM] | TGI (MCF7 breast) [µM] | GI50 (NCI-H522 lung) [µM] | TGI (NCI-H522 lung) [µM] | GI50 (OVCAR-4 ovarian) [µM] | TGI (OVCAR-4 ovarian) [µM] | GI50 (PC-3 prostate) [µM] | TGI (PC-3 prostate) [µM] | GI50 (SF-295 CNS) [µM] | TGI (SF-295 CNS) [µM] | GI50 (SF-539 CNS) [µM] | TGI (SF-539 CNS) [µM] | GI50 (SW-620 colon) [µM] | TGI (SW-620 colon) [µM] |
| --- | --- | --- | --- | --- | --- | --- | --- | --- | --- | --- | --- | --- | --- | --- | --- | --- | --- | --- | --- | --- |
| COc1ccc2c(c1)C(=O)c1c-2c(Nc2ccc(C(C)=O)cc2)nc2ccccc12 | > 100 | > 100 | 29 | > 100 | 54.7 | > 100 | 64.7 | > 100 | 30.3 | > 100 | 58.3 | > 100 | 34.3 | > 100 | 33.8 | > 100 | 15.5 | 44.5 | > 100 | > 100 |
| O=C(CN1CCN(c2ccc(Cl)cc2)CC1)N1CCN(c2nnc(-c3ccc(Cl)cc3)c(-c3ccc(Cl)cc3)n2)CC1 | 55.3 | > 100 | 80 | > 100 | 14.5 | 76.4 | 8.9 | > 100 | 18.2 | 46.9 | > 100 | > 100 | 57.5 | > 100 | 20.9 | > 100 | 19.6 | 69.9 | > 100 | > 100 |
| CC(C)(C)c1[nH]cnc1/C=c1\[nH]c(=O)/c(=C/c2ccccc2)[nH]c1=O | 0.013 | 0.101 | 0.0159 | 31.3 | < 0.0121 | 17.7 | 0.0203 | 17 | < 0.01 | 0.159 | 0.151 | 55.3 | < 0.01 | 36.1 | < 0.01 | 20.5 | < 0.01 | 0.0321 | < 0.01 | 50.7 |
| CN(C)c1ncnc2c1nnn2C1OC(CO)C(O)C1O (centres undefined) | 0.194 | 0.769 | 0.106 | > 100 | 0.156 | > 100 | 0.216 | > 23.4 | 0.272 | 1.41 | 0.0558 | > 100 | 0.271 | > 45.5 | 0.221 | > 58.3 | 0.503 | > 90.6 | 0.293 | > 100 |
| CC1CCN(CCCCCOc2ccc3oc4cc(Cl)ccc4c(=O)c3c2)CC1 | 6.09 | 14.1 | 7.14 | 13.9 | 4.18 | 10.9 | 5.9 | 14.2 | 9.09 | 18 | 6.22 | 13.6 | 6.89 | 16.4 | 6.8 | 13.2 | 5.9 | 12.3 | 6.16 | 13.3 |
| Cc1ccc(C)c(NC(=O)NCc2ccc(Cl)cc2)c1 |  | > 100 |  | > 100 |  | > 100 |  | > 100 |  | 97.3 |  | > 100 |  | > 100 |  | > 100 |  | > 100 |  | > 100 |
| O=c1cc(N2CCNCC2)oc2c(-c3ccccc3)cccc12 | 11.3 | 27.8 | 59 | > 100 | 31.7 | > 100 | 40.7 | > 100 | 37 | > 100 | 52.7 | > 100 | 32 | > 100 | 39.8 | > 100 | 68 | > 100 | 82.9 | > 100 |
| CCOC(=O)/C=C/c1cc2cc(-c3csc4ccccc34)ccc2[nH]1 | 7.16 | 21.3 | 4.83 | 16.6 | 5 | 18.9 | 3.34 | 15.3 | 4.19 | 17 | 7.1 | 19.8 | 3.42 | 13.8 | 4.11 | 16 | 14 | 27.1 | 3.54 | 14.1 |
| CC(=O)c1cc2c(cc1Nc1c3ccccc3nc3occ(Cl)c13)OCO2 | 0.391 | > 37.9 | 0.227 |  | 0.435 | > 100 | 0.0939 | > 100 | 0.0402 | 1.46 | 82.9 | > 100 | 0.0856 | 3.71 | 0.0402 | 0.188 | 0.0302 | 0.0998 | 0.0344 | > 100 |
